Marks after values point to notes of the source that are not given here.
Assays:
gut microbiota = test: Gut microbiota analysis by 16S rRNA gene sequencing of feces; format: in vivo, male Balb/c mice; conditions: for modulatory effect on gut microbes as δTE and δTE-13′: unpublished data by Liu and Jiang
Protocol: DNAs from ^˜30-40 mg fecal samples were isolated using FASTDNA™ SPIN kit for isolating DNA from soil (MP Biomedicals, Solon, Ohio). The quality of the DNAs was assessed by NanoDrop One (260/280 OD ratio) (Thermo Fisher Scientific. Weltham, Mass.) and 0.8% agarose gel electrophoresis. The DNAs were stained with Hoechst 33258 dye and quantities were determined using a NanoDrop 3300 fluorospectrometer (Thermo Fisher Scientific. Weltham, Mass.).
DNA templates (10 ng) were used for two-step polymerase chain reactions (PCRs) using Q5 High Fidelity DNA Polymerase to minimize errors (New England Biolabs, Ipswich, Mass.). The first PCR reaction is to amplify the 16S rRNA V3 and V4 region (^˜460 bp), with forward primer (343-357: 5′ TAC CGR AGG CAG CAG 3′), and a reverse primer (804-790: 5′ CTA CCR GGG TAT CTA ATCC 3′). which is based on primer accuracy and coverage of phylogenetic information that has been determined for short sequencing reads. Four degenerate bases were added to the 1st cycle forward primers to maximize detected microbial diversity and improve the base-calling accuracy of sequencing. The second PCR is to tag the amplicons with unique barcodes using 8-bp tagged forward and reverse primers (Illumina) (support.illumina.com). The number of PCR cycles were 15 in the first step and 5 in the second step to minimize formation of PCR artifacts. After each PCR, unincorporated primers and nucleotides were removed from PCR amplicons using Agencourt AMPure XP kit (Beckman Coulter). The PCR products were evaluated by 1.2% agarose gel and quantified using a NanoDrop 3300 fluorospectrometer after staining with Quantifluor dsDNA Assay Kit (Promega, Madison, Wis.). Amplicons from each sample were combined in equimolar quantities for 250 bp pair-end sequencing using a MiSeq system (Illumina, San Diego, Calif.).
The raw sequencing data were processed on the QIIME2 platform. The quality of the sequences was checked and bases with low-quality scores (Q less than 30) were trimmed. After denoising, merging and chimeric-checking using DADA2, amplicon sequence variants (ASVs) were aligned with the SILVA 132 marker gene reference database. After rarefaction, microbial alpha diversities were computed using observed OTUs, Faith Phylogenetic Diversity (PD), Piclou evenness and Shannon indices. For beta diversities, principal coordinate analysis (PCoA) was performed using Unweighted UniFrac, Weighted UniFrac, Jaccard and Bray Curtis distance matrices. Permutational (non-parametric) multivariate statistic (perMANOVA) and permutation analysis of multivariate dispersions (PERMDISP) were used to determine beta diversity significance. To identify differential abundant taxa, we performed analysis of composition of microbiomes (ANCOM) followed by Kruskal-Wallis to determine pair-wise significance. ANCOM takes into account the compositional nature of the dataset and compares absolute abundance in the community. Furthermore, we used linear discriminant analysis (LDA) effect size (LEfSe) to identify microbial taxa that are enriched by the dietary treatments. The cutoff for LDA was set at 3.5. In addition, canonical correspondence analysis (CCA) in PAST3 (Paleontological statistics) was used to determine correlation between relative abundances (at the species level) of gut microbial communities and environmental variables including AOM/DSS treatment, δTE, δTE-13′, ratio of colon length/weight (L/W) and large-size tumors. Significance of the model for the correlations was calculated using a Monte Carlo test with 999 permutations.
Tumor multiplicity and log transformed tumor area were analyzed by Kruskal-Wallis followed by Mann-Whitney test. Vitamin E and metabolites were compared using Student's t test. For cytokine data, Mann-Whitney test was used to compare two groups including AD vs. non-AD, AD vs. δTE, and AD vs. δTE-13′. PAST 3.24 was used for analysis of Spearman correlation among cytokines and multiple factors. […]

MCP-1 = test: Multiplex cytokine assay in colon homogenates: MCP-1; format: in vivo, male Balb/c mice; conditions: AOM/DSS-treated mice, vs control diet
Protocol: (§1) Colon tissues were homogenized with POLYTRON® homogenizer (Kinematica AG, Switzerland) on ice in the lysis buffer consisting of 150 mM NaCl, 1 mM EDTA (pH 8.0), 20 mM Tris (pH 7.5), 0.5% Tween 20, 10 uM indomethacin (Cayman), and 1× protease inhibitor cocktail (Sigma). Protein concentrations in tissue homogenates were quantified by BCA assay. The concentrations of selected cytokines were analyzed using a Mouse Cytokine Array Proinflammatory Focused 10-Plex Discovery Assay by Eve Technologies (Calgary, AB Canada). The 10-Plex Discovery Assay includes IFNγ, IL-1β, GM-CSF, IL-2, IL-4, IL-6, IL-10, IL-12p70, MCP-1 and TNFα.
(§2) Tumor multiplicity and log transformed tumor area were analyzed by Kruskal-Wallis followed by Mann-Whitney test. Vitamin E and metabolites were compared using Student's t test. For cytokine data, Mann-Whitney test was used to compare two groups including AD vs. non-AD, AD vs. δTE, and AD vs. δTE-13′. PAST 3.24 was used for analysis of Spearman correlation among cytokines and multiple factors. For correlation analysis of gut microbiota and δTE-13′, Spearman correlation tests were performed using RStudio 1.1.456 and adjusted with Benjamini-Hochberg correction to control the false discovery rate for multiple testing. Other statistical analyses are described in figure captions.

[1] = Concentrations of vitamin E forms and metabolites in plasma and feces; format: in vivo
Protocol: Vitamin E forms were extracted as previously described. Briefly, plasma tocopherols and metabolites were extracted using a mixture of methanol/hexane (1/2,v/v) in the presence of butylated hydroxytoluene (BHT; 0.8 mM) and ascorbate (0.2 mg/ml). […] The Journal of Nutritional Biochemistry. 2009;20:894-900. For fecal samples, ˜30 mg feces were smashed and homogenized in 2 ml methanol with BHT (0.8 mM) and ascorbate (0.2 mg/ml). After brief centrifugation, a 1.4 ml methanol layer was obtained and added with 200 μl of PBS, and extracted by 5 ml hexane. For plasma and fecal samples, the hexane and methanol layer were used for quantification of vitamin E forms and metabolites, respectively.
Different vitamin E forms were separated on a 150×4.6 mm, 5 μm SUPELCOSIL™ LC-18-DB column (Supelco, Bellefonte, PA), and eluted with 95/5 (v/v) methanol/0.1M lithium acetate (final 25 mM, pH 4.75) at a flow rate of 1.3 ml/min. Tocopherols and tocotrienols were monitored by coulometric detection (Model Coulochem II, ESA Inc., Chelmsford, MA) at 300 (upstream) and 500 mV (down-stream electrode) using a Model 5011 analytical cell
The detailed LC-MS/MS method for analyzing vitamin E metabolites has been previously reported. See Jiang Q, Xu T, Huang J, Jannasch AS, Cooper B, Yang C. Analysis of vitamin E metabolites including carboxychromanols and sulfated derivatives using LC/MS/MS. J Lipid Res. 2015;56:2217-25. Briefly, vitamin E metabolites were quantified based on external standards with internal standards for correction of injection and extraction. The LC-MS/MS analysis was done with an Agilent1200 liquid chromatography system coupled to an Agilent 6460 QQQ mass spectrometer equipped with a jet stream electrospray ionization (ESI) source (Santa Clara, CA). The chromatography utilized an Atlantis dC18 column (2.1×150 mm, 3 μm) from Water's Corporation (Milford, MA). Buffer A and B consisted of acetonitrile/ethanol/water (165/135/700, v/v/v) and acetonitrile/ethanol/water (539/441/20, v/v/v), respectively. The LC gradient ran at 0.3 ml/min as follows: 0-1 min, 0% B; at 30 min, 99% B; at 35 min, 99% B; at 37 min, 0% B. Negative polarity ESI was used with gas temperature of 325° C., gas flow at 10 L/min, nebulizer pressure at 30 psi, sheath gas temperature of 250° C., sheath gas flow at 7 L/min, capillary voltage at 4000V, nozzle voltage at 1500 V, and an electron multiplier voltage of −300 V. All data were evaluated with Agilent MassHunter Qualitative Analysis software, versionB.01.06.

[2] = tested on: AOM/DSS-induced colon tumorigenesis; conditions: 0.022% diet; previous study; cited from earlier work
[3] = Body weight, food intake and organ weight during supplementation; format: in vivo, male Balb/c mice; conditions: supplementation for more than two months
Protocol: The animal use protocol was approved by the Animal Care and Use Committee at Purdue University. After one-weck adaptation, 6-7 weck old male Balb/c mice from Harlan, (Indianapolis, IN) were i.p. injected with AOM at 9.5 mg/kg body weight. A week later, AOM-injected mice were randomized into AIN-93G (control), δTE-supplemented and δTE-13′-supplemented groups. Meanwhile, mice were given 1.5% DSS in drinking water for 1 week. The DSS cycle was repeated after a two-week interval (design outlined in FIG. 1C). During DSS treatment, we evaluated colitis severity by monitoring body weight, food intake, rectal bleeding and stool consistency. Clinical colitis scores were quantified as follows: bleeding, 0=no blood, 1=feces with blood less than 50%, 2=feces with blood more than 50% but less than 100%, and 3=feces with full blood; stool softness, 0=hard, 1=a bit soft, 2=soft, and 3=very soft.

[4] = tested on: AOM/DSS-induced colon tumorigenesis; test: AOM/DSS-induced colon tumorigenesis in mice; format: in vivo, male Balb/c mice; conditions: AOM/DSS-treated mice; δTE/γTE (8/1) 0.035% diet or δTE-13′ 0.04% diet
Protocol: FIG. 1 illustrates (A) The chemical structures of δTE, γTE and δTE-13′; (B) Metabolism of δTE and δTE-13′; and (C) The study design of AOM/DSS model in mice-Six-seven-week old male Balb/c mice were i.p. injected with AOM at 9.5 mg/kg body weight. A week later, AOM-injected mice were randomized into AIN-93G (control), δTE-supplemented and δTE-13′-supplemented groups. Meanwhile, mice were given 1.5% DSS in drinking water for 1 week. The DSS cycle was repeated after a two-week interval.
δTE-13′ (>92%) used in animal studies was isolated from Garcinia kola seeds based on published procedures. See Jang Y, Park N Y, Rostgaard-Hansen A L, Huang J, Jiang Q. Vitamin E metabolite 13′-carboxychromanols inhibit pro-inflammatory enzymes, induce apoptosis and autophagy in human cancer cells by modulating sphingolipids and suppress colon tumor development in mice. Free Radical Biology & Medicine. 2016;95:190-9. Azoxymethane (AOM) was purchased from Sigma and dextran sodium sulfate (DSS, Mw36,000-50,000 Da) was from MP Biochemicals (Solon, OH). δTE/γTE (8/1) was a gift from American River Nutrition (Hadley, MA). AIN-93G diet was used as the control diet. […]
The animal use protocol was approved by the Animal Care and Use Committee at Purdue University. […] During DSS treatment, we evaluated colitis severity by monitoring body weight, food intake, rectal bleeding and stool consistency. Clinical colitis scores were quantified as follows: bleeding, 0=no blood, 1=feces with blood less than 50%, 2=feces with blood more than 50% but less than 100%, and 3=feces with full blood; stool softness, 0=hard, 1=a bit soft, 2=soft, and 3=very soft.
During tissue harvest, colons were removed, rinsed with cold PBS, cut open longitudinally, and macroscopically examined. The size and number of macroscopic tumors were measured and recorded. […]
Tumor multiplicity and log transformed tumor area were analyzed by Kruskal-Wallis followed by Mann-Whitney test. […]

GM-CSF = test: Multiplex cytokine assay in colon homogenates: GM-CSF; format: in vivo, male Balb/c mice; conditions: AOM/DSS-treated mice, vs control diet
Protocol: as §1, §2

[5] = ANCOM, compared with control diet in AD-treated or healthy mice
[6] = LEfSe, LDA cutoff 3.5, AOM/DSS-treated mice
[7] = fecal microbiota, AOM/DSS-treated mice, mean ± SEM

SMILES: Cc1c(C)c2c(c(C)c1O)CC[C@@](C)(CCC[C@H](C)CCC[C@H](C)CCCC(C)C)O2 [αT, α-tocopherol, reference compound]
- modulatory effect on gut microbes as δTE and δTE-13′ (gut microbiota): do not share the same modulatory effect

SMILES: Cc1c(O)cc2c(c1C)O[C@](C)(CCC[C@H](C)CCC[C@H](C)CCCC(C)C)CC2 [γT, γ-tocopherol, reference compound]
- modulatory effect on gut microbes as δTE and δTE-13′ (gut microbiota): do not share the same modulatory effect

SMILES: C/C(=C\CC/C(C)=C/CCC1(C)CCc2cc(O)cc(C)c2O1)CC/C=C(\C)C(=O)O (centres unmarked) [δTE-13′, δTE-13′-carboxychromanol]
- AOM/DSS-induced MCP-1 in colon homogenates (MCP-1): significant reduction
- parental compound in the plasma ([1]; δTE-13′ supplementation): did not result in detectable amount
- δTE-13′ with 3 DB (the parental compound) in feces ([1]; δTE-13′ supplementation): increased
- fecal δTE-13′ with 2 DB relative to that from δTE ([1]; δTE-13′ vs δTE supplementation): significantly higher
- plasma concentrations of metabolites relative to those from δTE ([1]; δTE-13′ vs δTE supplementation): about twice as much
- large-size tumor multiplicity [2]: significantly suppressed
- total tumor multiplicity [2]: significantly suppressed
- effect on animals' body weight [3]: did not affect
- effect on food intake [3]: did not affect
- effect on organ weight [3]: did not affect
- decrease of large size (>2 mm^2) polyps compared with control diet [4]: 55%
- decrease of total polyps (total tumor multiplicity) compared with control diet [4]: 25%
- decrease of tumor surface area [4]: 38%
- AOM/DSS-induced GM-CSF in colon homogenates (GM-CSF): significant reduction
- AOM/DSS-associated decrease of genus Roseburia (gut microbiota; ANCOM, relative abundance): partially reversed
- relative abundance of Streptococccaceae family (gut microbiota; [5]): significantly elevated
- relative abundance of genus Lactococcus (gut microbiota; [5]): significantly elevated
- Bacteroides (LEfSe) (gut microbiota; [6]): enriched
- Parabacteroides goldsteinii CL02T12C30 (LEfSe) (gut microbiota; [6]): enriched
- ratio of Firmicutes to Bacteroidetes in feces (gut microbiota; compared with healthy controls): appeared to decrease
- alpha diversity: Evenness (gut microbiota; [7]): 0.81 ± 0.01^b
- alpha diversity: Faith PD (gut microbiota; [7]): 10.42 ± 0.24^a
- alpha diversity: Observed OTU (gut microbiota; [7]): 177.06 ± 8.75^a
- alpha diversity: Shannon (gut microbiota; [7]): 6.05 ± 0.07^a

— patent US20260021137A1, “COMPOSITIONS FOR TREATING COLITIS AND/OR PREVENTING COLON CANCER” (Purdue Research Foundation, priority 2020, published 2026)
